Results as given in patent publication US10144715B2, “Piperazine derivatives as liver X receptor modulators” (priority 2014, dated 2018).
Where two headings read alike, the source gives them in different places.

Legend:
LXR α LBD protein [1] = biological target: T1, LXR α LBD protein (Homo sapiens (Human), UniProt Q13133); assay: LXR α radioligand binding assay (SPA, competition with [3H]TO901317); conditions: read-out: LXRα Binding Ki
LXR β LBD protein [2] = biological target: T2, LXR β LBD protein (Homo sapiens (Human), UniProt P55055); assay: biochemical; assay type: binding; conditions: read-out: LXRβ Binding Ki
Target sequence in this assay (P55055 222-460 limits assumed): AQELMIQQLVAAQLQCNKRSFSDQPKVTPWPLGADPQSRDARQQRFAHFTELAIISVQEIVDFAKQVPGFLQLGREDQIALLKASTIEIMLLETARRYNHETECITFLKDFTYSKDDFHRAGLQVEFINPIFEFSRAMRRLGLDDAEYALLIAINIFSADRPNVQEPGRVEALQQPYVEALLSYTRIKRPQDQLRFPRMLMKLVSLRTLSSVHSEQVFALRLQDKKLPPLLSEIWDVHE

[3] = biological target: Gal4 DNA binding domain fused to the LBD of LXRα in HEK293 cells (Homo sapiens (Human), UniProt Q13133); assay: LXR luciferase transcriptional reporter gene assay, agonist mode, LXRα; assay type: cell-based; conditions: for EC50: read-out: Cell LXRα EC50
Chain of Gal4 DNA binding domain fused to the LBD of LXRα in HEK293 cells (Q13133 209-447): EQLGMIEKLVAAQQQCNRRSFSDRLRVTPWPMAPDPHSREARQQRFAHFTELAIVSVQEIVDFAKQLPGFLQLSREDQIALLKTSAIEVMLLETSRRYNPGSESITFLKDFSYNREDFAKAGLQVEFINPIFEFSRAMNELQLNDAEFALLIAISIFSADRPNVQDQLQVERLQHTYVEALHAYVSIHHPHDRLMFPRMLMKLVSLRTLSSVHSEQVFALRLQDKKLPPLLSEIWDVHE

[4] = biological target: Gal4 DNA binding domain fused to the LBD of LXRβ in HEK293 cells (Homo sapiens (Human), UniProt P55055); assay: cell-based
Chain of Gal4 DNA binding domain fused to the LBD of LXRβ in HEK293 cells (P55055 222-460 limits assumed): as the sequence (P55055 222-460 limits assumed) above

LXR α LBD protein [5] = biological target: T1, LXR α LBD protein; assay: Human LXRα coactivator recruitment FRET assay, agonist mode; assay type: biochemical
Procedure, shortened: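 Time-resolved FRET (delay 100 µs, window 200 µs) after 2 h rt incubation of compound with 10 nM (2×) GST-tagged LXRα or LXRβ LBD plus 200 nM fluorescein-SRC2-3 and 20 nM Tb-anti-GST (4×). Percent control vs concentration fit to four-parameter model; EC50 at inflection.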

LXR β LBD protein [6] = biological target: T2, LXR β LBD protein; assay: biochemical; assay type: biochemical
Description: Two μL of the DMSO solutions were transferred to the plate and 38 μL of 10 nM LXRα-LBD or LXRβ-LBD (2×) were added immediately to the wells. The plate was shaken for 5 min at rt on an orbital micro shaker (DPC MicroMix® 5), after which 40 μL of 200 nM fluorescein-SRC2-3 peptide and 20 nM Terbium-anti-GST-antibody (Cat# PV3550, Life Technologies, Grand Island, N.Y.) solution (4×) were added to all. The plate was sealed and shaken for 2 min at rt, and incubated at rt for 2 h without agitation. […] The delay and window times were set at 100 and 200 microseconds, respectively. […] The percent control vs. compound concentration data were fit into a four-parameter model, and EC50 values were calculated from the fit as the concentrations corresponding to the inflection points on the concentration-response curves.
Target sequence in this assay (P55055 222-460): as the sequence (P55055 222-460 limits assumed) above

[7] = agonist mode, read-out: Cell LXRβ EC50
[8] = agonist mode, read-out: FRET LXRβ EC50
[9] = Biological Test Example 2, agonist mode
[10] = Biological Test Example 3, agonist mode

T1 sequence (Q13133 209-447): as the sequence (Q13133 209-447) above

SMILES | Cell LXRα efficacy [3] | EC50 [3] [µM] | Cell LXRβ efficacy ([4]; agonist mode) | EC50 [4, 7] [µM] | EC50 (LXR α LBD protein [5]; agonist mode) [µM] | FRET LXRα efficacy (LXR α LBD protein [5]; agonist mode) [%] | FRET LXRβ efficacy (LXR β LBD protein [6]; agonist mode) | EC50 (LXR β LBD protein [6]; [8]) [µM] | EC50 [4] [µM] | also measured
CS(=O)(=O)c1cc(N2CCN(C[C@H]3CC[C@H](C(F)(F)F)CC3)[C@@H](c3ccccc3)C2)ccc1C(N)=O (single isomer, unassigned) [17-37] | 16011 (50) % | 16 | 24% | 3.53 | 0.605 | 53 | 85% | 0.355 | – | Ki (LXR α LBD protein [1]): 3.21 µM; Ki (LXR β LBD protein [2]): 1.01 µM
CS(=O)(=O)c1cc(N2CCN(C[C@H]3CC[C@@H](C(F)(F)F)CC3)[C@H](c3ccccc3)C2)ccc1C(N)=O (single isomer, unassigned) [17-38] | 4828 (13) % | 4.83 | 18% | 1.79 | 3.37 | 34 | 71% | 0.561 | – | Ki (LXR α LBD protein [1]): 3.13 µM; Ki (LXR β LBD protein [2]): 0.753 µM
CS(=O)(=O)c1cccc(N2CCN(Cc3ccc(C(F)(F)F)cc3)[C@@H](c3ccccc3)C2)c1 (single isomer, unassigned) [46-15] | 2993 (28) % | – | – | – | 1.52 | 28 | – | – | 0.72 | Ki (LXR β LBD protein [2]): 0.158 µM; EC50 ([3]; agonist mode): 2.99 µM; Cell LXRβ efficacy [4]: 720 (26) %; FRET LXRβ efficacy (LXR β LBD protein [6]): 418 (45) %; EC50 (LXR β LBD protein [6]; read-out: FRET LXRβ EC50): 0.418 µM
Cc1ccccc1[C@@H]1CN(c2cccc(S(C)(=O)=O)c2)CCN1Cc1ccc(C(F)(F)F)nc1 (single isomer, unassigned) [46-45] | – | – | 7516 (44) % | – | 6.57 | 43 | 1524 (74) % | – | 7.52 | EC50 ([3]; agonist mode): > 20 µM; EC50 (LXR β LBD protein [6]; read-out: FRET LXRβ EC50): 1.52 µM
CS(=O)(=O)c1cccc(N2CCN(Cc3ccc(C(F)(F)F)nc3)[C@H](c3ccccc3Cl)C2)c1 (single isomer, unassigned) [46-56] | – | > 20 | – | – | 27 | 47 | – | – | > 20 | FRET LXRβ efficacy (LXR β LBD protein [6]): 2252 (40) %; EC50 (LXR β LBD protein [6]; read-out: FRET LXRβ EC50): 2.25 µM
CC(C)[C@H]1CC[C@H](CN2CCN(c3cccc(S(C)(=O)=O)c3)C[C@H]2c2ccccc2)CC1 (single isomer, unassigned) [48-14] | – | > 20 | – | > 20 | > 50 | – | 67% | 12.3 | – | –
CS(=O)(=O)c1cccc(N2CCN(C[C@H]3CC[C@H](C(F)(F)F)CC3)[C@H](c3ccccc3)C2)c1 (single isomer, unassigned) [48-32] | 19000 (4) % | 19 | 15% | 3.34 | 15.3 | 59 | 97% | 3.8 | – | –
NS(=O)(=O)c1cccc(N2CCN(C[C@H]3CC[C@@H](C(F)(F)F)CC3)[C@H](c3ccccc3)C2)c1 (single isomer, unassigned) [48-34] | 9858 (48) % | 9.86 | 32% | 3.82 | 2.31 | 25 | 39% | 0.704 | – | –
NS(=O)(=O)c1cccc(N2CCN(C[C@H]3CC[C@H](C(F)(F)F)CC3)[C@H](c3ccccc3)C2)c1 (single isomer, unassigned) [48-36] | – | > 20 | – | > 20 | > 50 | – | 25% | 16.4 | – | –
NS(=O)(=O)c1cccc(N2CCN(C[C@H]3CC[C@H](C(F)(F)F)CC3)[C@@H](c3ccccc3)C2)c1 (single isomer, unassigned) [48-37] | 2829 (39) % | 2.83 | 19% | 1.18 | 2.35 | 33 | 30% | 1.29 | – | –
CS(=O)(=O)c1cccc(N2CCN(C[C@H]3CCN(CC(F)(F)F)C3)[C@H](c3ccccc3)C2)c1 (single isomer, unassigned) [48-60] | 18622 (13) % | – | – | – | – | – | – | – | 6.83 | EC50 [3, 9]: 18.6 µM; Cell LXRβ efficacy [4, 9]: 6832 (7) %; EC50 (LXR α LBD protein [5]; [10]): 16.1 µM; FRET LXRα efficacy (LXR α LBD protein [5]; [10]): 27%; EC50 (LXR β LBD protein [6]): 1.03 µM; FRET LXRβ efficacy (LXR β LBD protein [6]; [10]): 1032 (33) %
